Assay results published in PMC9168903, “Crystal Structures of Arabidopsis thaliana GDP-D-Mannose Pyrophosphorylase VITAMIN C DEFECTIVE 1” (Frontiers in Plant Science, 2022).
Values joined by “and” are separate entries in the source; they are usually repeats but may differ in a detail not shown here. Identical values can stand only once.

How the values were obtained:
[1] = target: T1, VTC1ΔC (Arabidopsis thaliana, UniProt O22287); experiment: GMPase assay, malachite green phosphate release after pyrophosphatase; format: biochemical; settings: 0.2 mM Man-1-P, 0.2 mM GTP, 1 mM MgCl2, 1 mM DTT, 50 mM Tris-HCl pH 7.5, 37 °C, 0.2 μM enzyme
T1 construct: gene CYT1; truncation lacking the C-terminal 139 residues (LβH domain region removed); catalytic domain; recombinant, purified as full-length VTC1

[2] = target: T2, VTC1 (Arabidopsis thaliana, UniProt O22287); experiment: X-ray crystal structure, […] Å; format: binding
T2 construct: gene CYT1; full-length recombinant, 41 kDa; dimer, tetramer and aggregate in SEC
T2 sequence (O22287 1-361): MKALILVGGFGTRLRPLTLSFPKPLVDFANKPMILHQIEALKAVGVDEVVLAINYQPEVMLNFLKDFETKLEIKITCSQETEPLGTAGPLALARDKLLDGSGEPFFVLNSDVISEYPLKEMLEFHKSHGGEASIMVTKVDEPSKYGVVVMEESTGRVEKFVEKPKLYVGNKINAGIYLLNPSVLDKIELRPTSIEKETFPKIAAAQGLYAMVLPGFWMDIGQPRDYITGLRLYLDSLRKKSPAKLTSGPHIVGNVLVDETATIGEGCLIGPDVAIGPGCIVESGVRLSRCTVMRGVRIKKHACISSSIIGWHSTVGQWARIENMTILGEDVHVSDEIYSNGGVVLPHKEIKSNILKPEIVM

[3] = target: the molecule itself; experiment: SEC; HiLoad 16/60 Superdex 200 column; purified recombinant VTC1; three peaks compared with protein standards
[4] = target: the molecule itself; experiment: crystal structure; product-bound VTC1 (GDP-Man, PPi, citrate), 3.0 Å, space group R32, two dimers in the asymmetric unit, threefold symmetry

O=P(O)(O)O[C@H]1O[C@H](CO)[C@@H](O)[C@H](O)[C@@H]1O [D-mannose-1-phosphate]
GMPase assay, malachite green phosphate release after pyrophosphatase [1]: VTC1ΔC retained, but only ca. one third of the GMPase activity

O=P(O)(O)OP(=O)(O)O [inorganic pyrophosphate]
X-ray crystal structure, 3.0 Å ([2]; catalytic domain, β1–η1 loop, bound in inner and outer protomers, same site as citrate): the inner and outer protomers each bind a PPi

Nc1nc2c(ncn2[C@@H]2O[C@H](COP(=O)(O)OP(=O)(O)OP(=O)(O)O)[C@@H](O)[C@H]2O)c(=O)[nH]1 [GTP]
GMPase assay, malachite green phosphate release after pyrophosphatase [1]: VTC1ΔC retained, but only ca. one third of the GMPase activity

Nc1nc2c(ncn2[C@@H]2O[C@H](COP(=O)(O)OP(=O)(O)O[C@H]3O[C@H](CO)[C@@H](O)[C@H](O)[C@@H]3O)[C@@H](O)[C@H]2O)c(=O)[nH]1 [GDP-D-mannose]
X-ray crystal structure, 3.0 Å ([2]; active site of catalytic domain, bound in middle protomer, citrate also bound): The product GDP-Man binds at the edge of the central β-sheet (Figure 4C).

B1: Arabidopsis thaliana GDP-D-mannose pyrophosphorylase VITAMIN C … 1 (enzyme, UniProt O22287 1-361, looked up)
chain: T2 sequence (O22287 1-361)
notes: VTC1 (GDP-D-mannose pyrophosphorylase), Arabidopsis thaliana, full-length; recombinant protein stated to have a molecular weight of 41 kDa; also called VTC1; GMPase; source: recombinant, purified (SEC on HiLoad 16/60 Superdex 200); production described previously (Zhao and Liu, 2016)
stoichiometry N [3]: 2 and 4
stoichiometry N [4]: 12
